In patent US20220160867A1, “METHODS AND COMPOSITIONS COMPRISING CATIONIC LIPIDS FOR IMMUNOTHERAPY BY DIRECT TUMOR INJECTION” (PDS Biotechnology Corporation, priority 2020, published 2022):

System: HPV-positive TC-1 tumor cells
Assay: TC-1 tumor model, tumor growth and survival after single treatment
Format: in vivo, B6 mice
Protocol: FIG. 1 provides a survival plot: B6 mice (n=4 per group) were implanted with 50,000 TC1 tumor cells subcutaneously. On day 10, group 2 received tumor vaccine R-DOTAP−HPV mix formulation (100 μl) (ASP3-250-HPV mix) containing HPV antigens (ASP3/R-DOTAP (S.C.) in the opposite flank of the tumor and group 3 mice received intra-tumoral injection of R-DOTAP (50 μl of 6 mg/ml) (RDOTAP (IT)).
Three groups of mice were injected on day 0 with 50,000 HPV-positive TC-1 tumor cells. In order for a stringent test of antitumor effect, the tumors were allowed to grow to a size of 6-7 mm prior to treatment on Day 10. The aggressively growing tumors reached a size of 10 mm by Day 14. Group 1 mice (Naïve) were left untreated and had to be sacrificed by Day 16. The mice in Group 2 (ASP3/R-DOTAP S.C.) were treated with one subcutaneous injection of R-DOTAP+HPV16(49-57) antigen injection on the opposite flank to the tumor. The mice in Group 3 (R-DOTAP IT) were treated with a single intra-tumoral injection of R-DOTAP only. The tumor sizes and survival of all 3 groups were monitored.
FIG. 1 provides a survival plot: B6 mice (n=4 per group) were implanted with 50,000 TC1 tumor cells subcutaneously.

Question: With `CCCCCCCC/C=C\CCCCCCCC(=O)OC[C@@H](C[N+](C)(C)C)OC(=O)CCCCCCC/C=C\CCCCCCCC` [R-DOTAP, (R)-1,2-dioleoyl-3-trimethylammonium propane] as the compound, how does the “antitumor efficacy (survival plot, FIG. 1)” value (intra-tumoral R-DOTAP only, 50 μl of 6 mg/ml, no antigen, compared with sub-cutaneous R-DOTAP+antigen) read?
Answer: comparable antitumor efficacy

Question: What about the tumor growth rates (tumors 6-7 mm at single treatment on Day 10, data not shown) of the same compound?
Answer: dramatic slowing of the tumor growth rates
